Data as given in patent publication US7335756B2, “Retinoic acid metabolizing cytochrome P450” (Cytochroma Inc., priority 2001, dated 2008).

How the values were obtained:
[1] = target: T1, CYP26-B (Homo sapiens, UniProt Q9NR63); test: RA-metabolism cell based assay in CYP26-B-infected Sf9 cells; conditions: 2 nM [3H]-RA
T1 sequence (Q9NR63 1-512): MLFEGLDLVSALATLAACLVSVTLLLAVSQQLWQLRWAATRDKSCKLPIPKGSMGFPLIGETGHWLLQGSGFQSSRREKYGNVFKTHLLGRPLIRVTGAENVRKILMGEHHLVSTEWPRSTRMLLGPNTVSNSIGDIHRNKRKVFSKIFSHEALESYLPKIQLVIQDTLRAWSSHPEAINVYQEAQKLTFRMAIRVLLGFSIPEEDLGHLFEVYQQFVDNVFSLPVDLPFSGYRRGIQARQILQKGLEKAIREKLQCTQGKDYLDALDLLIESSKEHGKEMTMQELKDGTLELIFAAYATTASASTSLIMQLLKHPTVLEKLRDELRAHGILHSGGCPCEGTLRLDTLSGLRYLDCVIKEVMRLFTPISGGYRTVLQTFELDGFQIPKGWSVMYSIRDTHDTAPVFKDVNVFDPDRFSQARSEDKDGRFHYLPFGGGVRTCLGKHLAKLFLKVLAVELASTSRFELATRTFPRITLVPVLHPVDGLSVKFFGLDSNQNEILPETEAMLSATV
Procedure: Recombinant baculovirus expressing either P450RAI-3 or CYP26B (Bac-P450RAI-3 or Bac-CYP26B or CYP26B) was prepared and titrated by end-point dilution and infection of Sf9 cells in 96-well format. Baculovirus expressing vector was co-transfected into Sf9-insect cells. Infected cells were assessed for RA-metabolism after 72 hours post transfection using RA-metabolism cell based assay as follows: the RA-metabolism reaction was started by adding 50 μl of [^3H]-RA solution (20000 cpm, 2 nM final concentration) using an automatic repeating-pipette.
Cells were incubated for 3 hours. The reaction was stopped by adding 5 μl of 10% acetic acid. Organic and aqueous soluble radio-labelled metabolites were extracted using the Bligh-Dyer procedure.

[2] = target: T2, P450RAI-3 (Homo sapiens, UniProt Q6V0L0, F447L); test: ATRA and 9-cis-RA binding assay, Sf9-Bac-P450RAI-3 insect microsomes; conditions: Kd, substrate binding to P450RAI-3, insect microsomes; Table 4 prints no unit, nM
T2 sequence (Q6V0L0 1-522 F447L): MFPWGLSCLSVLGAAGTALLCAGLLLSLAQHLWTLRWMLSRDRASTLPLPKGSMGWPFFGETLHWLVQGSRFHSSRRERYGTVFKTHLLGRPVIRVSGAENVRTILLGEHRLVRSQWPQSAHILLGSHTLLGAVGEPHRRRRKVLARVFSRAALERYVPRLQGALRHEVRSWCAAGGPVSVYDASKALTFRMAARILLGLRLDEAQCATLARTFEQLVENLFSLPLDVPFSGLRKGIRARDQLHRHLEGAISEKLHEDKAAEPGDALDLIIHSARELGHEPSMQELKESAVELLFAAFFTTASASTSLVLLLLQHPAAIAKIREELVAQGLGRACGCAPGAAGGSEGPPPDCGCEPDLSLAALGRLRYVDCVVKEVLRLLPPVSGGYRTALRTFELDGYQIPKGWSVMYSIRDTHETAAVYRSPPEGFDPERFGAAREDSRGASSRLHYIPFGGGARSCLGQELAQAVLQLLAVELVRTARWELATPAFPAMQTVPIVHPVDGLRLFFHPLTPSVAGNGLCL

[3] = target: T1, CYP26-B; test: [3H]-RA-metabolism inhibition, transient Cos-CYP26-B cell-based assay; conditions: at lower concentrations
[4] = target: T2, P450RAI-3; test: ATRA / 9-cis-RA metabolism in pcDNA-P450RAI-3 transfected Cos-1 cells (Bligh-Dyer, HPLC); format: cell-based; set-up: expressed in transfected cells; host or cells: COS-1 (transient, pcDNA-P450RAI-3, Fugene); conditions: 2 nM radio-labeled substrate, 3 hours
Procedure: Mammalian Cos-1 cells were transfected with either pcDNA-P450RAI-3 or pcDNA-control vector using Fugene™ (Roche diagnostic) according to the manufacturers directions. After 48 hours post-tranfection, cells were washed with PBS and assessed for ATRA-metabolism activity as described Briefly, transfected cells were incubated with radio-labeled ^3[H]-ATRA (18000 cpm, 2 nM) for 3 hours. Organic and Water-soluble metabolites were extracted using Bligh-Dyer procedure and radioactivity counted (FIG. 10).
HPLC analysis of the organic metabolites: the Bligh-Dyer organic button-layer was dried out and residues were suspended in HPLC solvent and then analyzed by HPLC as described in [White et al, PNAS, vol 97, pg 6403-6408], FIG. 11.
Mammalian Cos-1 cells were transfected with either pcDNA-P450RAI-3 or pcDNA-control vector according to the manufacturers directions using Fugene (Roche). After 48 hours post-tranfection, cells were washed with PBS and assessed for 9-cis-RA-metabolism activity as described using Bligh-Dyer procedure. Briefly, transfected cells were incubated with radio-labeled ^3[H]-9-cis-RA (38000 cpm, 2 nM) for 3 hours. Organic and Water-soluble metabolites were extracted using Bligh-Dyer procedure and radioactivity counted, FIG. 19.

CC1=C(/C=C/C(C)=C/C=C/C(C)=C/C(=O)O)C(C)(C)CCC1 [ATRA, all-trans-retinoic-acid]
metabolism by CYP26-B-infected Sf9-cells [1]: metabolized ATRA and converted it to water-soluble metabolites
Kd [2]: 45 nM
competition / inhibition of CYP26-B [3]: competed
metabolism by P450RAI-3 [4]: efficiently metabolize ATRA to polar metabolites
